The test system of test [1] is Aquaporin-4 (AQP4). Nature of the test: AQP4 expression in brain homogenate (ELISA), AlCl3 Alzheimer's model. The test is classed as in vivo, rat. The settings on record: 5, 10 and 20 mg/kg, FIG. 1. The text has this:
Aquaporin-4 (AQP4) is a channel protein that plays a fundamental role in glymphatic system, a pathway for fluid exchange in the central nervous system, as well as a central figure in the pathophysiology of neurodegenerative diseases such as Alzheimer's disease (AD) and frontotemporal dementia. It plays an important role in maintaining cerebral fluid homeostasis by acting as a water channel protein. The AQP4 not only enables water permeability through the blood-brain barrier and also regulates water exchange between perivascular spaces and the rest of the glymphatic system (Szczygielski et al., Cerebral Microcirculation, Perivascular Unit, and Glymphatic System: Role of Aquaporin-4 as the Gatekeeper for Water Homeostasis, Front. Neurol. 12:767470, doi: 10.3389/fneur.2021.767470). Further, Astrocytes are known to maintain extracellular potassium concentrations in the brain by a process termed “potassium siphoning”. Changes in potassium channel function alters brain homeostasis leading to brain impairment. Water movement via the AQP4 water channel localized to astrocyte end-feet maintains osmotic balance and promotes effective potassium siphoning (Verkman A S, Aquaporins in Clinical Medicine, Annu. Rev. Med. 2012. 63:303-16). […] In the present study, the levels were determined using ELISA kit (Biogenuix Medsystems Pvt. Ltd.).

Test [2] deals with Fibrinogen. The test can be described thus: Inflammatory marker fibrinogen (ELISA), AlCl3 Alzheimer's model. The class given is in vivo, rat. The following applies: for Fibrinogen: p.o. + AlCl3 (100 mg/kg, i.p.), Mean ± SEM, n = 6. The text has this: The inflammatory markers Fibrinogen, IL-1β were estimated using ELISA kit (Krishgen Biosystems, India).
(In an ELISA, binding on a coated surface is turned into a signal by an enzyme label.)

Experimental findings from patent publication US20260325464A1, “COMPOSITIONS FOR MODULATING THE EXPRESSION OF AQUAPORINS IN NEURODEGENERATIVE DISORDERS” (priority 2023, published 2026) are described below.

Regarding `COc1cc(CC/C=C/C(=O)CCc2ccc(O)c(OC)c2)ccc1O` [Gingerenone A], the “AQP4 expression (in words)” value in test [1] is on record as “increased AQP4 expression”. Also, the Fibrinogen in test [2] (5 mg/kg) came to 22.80 ± 0.738 ng/mL; in test [2] (10 mg/kg), 19.05 ± 0.232 ng/mL; in test [2] (20 mg/kg) it was 16.65 ± 0.431 ng/mL. Also, the “fibrinogen (in words)” value in test [2] (AlCl3 model, Table 9) is “significantly reduced”.
